≈ marks a conversion by molar mass, not a printed value. Read-outs that look alike come from different tables or passages of the source.
Assays:
Type in all cases: cell-based
Enterococcus faecium = assay: in vitro bacteriostatic activity, agar dilution MIC; settings: Enterococcus faecium, read-out: MIC
Enterococcus faecalis = assay: as above; settings: Enterococcus faecalis, read-out: MIC
[1] = system: Staphylococcus epidermidis MSSE; assay: as above
[2] = system: Staphylococcus aureus MSSA; assay: as above; settings: Staphylococcus aureus, MSSA
[3] = system: Staphylococcus epidermidis ATCC 12228; assay: in vitro bacteriostatic activity, agar dilution MIC, quality control strain; settings: Staphylococcus epidermidis, ATCC12228

SMILES: CC[C@H]1OC(=O)[C@H](C)[C@@H](O[C@H]2C[C@@](C)(OC)[C@@H](O)[C@H](C)O2)[C@H](C)[C@@H](O[C@@H]2O[C@H](C)C[C@H](N(C)C)[C@H]2O)[C@](C)(O)C[C@@H](C)CN(C)[C@H](C)[C@@H](O)[C@]1(C)O [azithromycin, Azithromycin]
- MIC (Enterococcus faecium; ATCC33186, Enterococcus faecium ATCC 33186): 2 µg/mL (≈ 2.67 µM)
- MIC (Enterococcus faecium; Enterococcus faecium 12-7): > 128 µg/mL
- MIC (Enterococcus faecium; Enterococcus faecium 12-8): 1 µg/mL (≈ 1.34 µM)
- MIC (Enterococcus faecium; Enterococcus faecium 12-9): > 128 µg/mL
- MIC (Enterococcus faecium; Enterococcus faecium 12-10): > 128 µg/mL
- MIC (Enterococcus faecium; Enterococcus faecium 12-11): > 128 µg/mL
- MIC (Enterococcus faecium; Enterococcus faecium 12-12): > 128 µg/mL
- MIC (Enterococcus faecium; Enterococcus faecium 12-13): > 128 µg/mL
- MIC (Enterococcus faecium; Enterococcus faecium 12-14): > 128 µg/mL
- MIC (Enterococcus faecium; Enterococcus faecium 12-15): > 128 µg/mL
- MIC (Enterococcus faecium; Enterococcus faecium 12-16): > 128 µg/mL
- MIC (Enterococcus faecalis; ATCC29212, Enterococcus faecalis ATCC 29212): 4 µg/mL (≈ 5.34 µM)
- MIC (Enterococcus faecalis; ATCC51299, Enterococcus faecalis (high endurance) ATCC 51299): > 128 µg/mL
- MIC (Enterococcus faecalis; Enterococcus faecalis 12-11): > 128 µg/mL
- MIC (Enterococcus faecalis; Enterococcus faecalis 12-12): 4 µg/mL (≈ 5.34 µM)
- MIC (Enterococcus faecalis; Enterococcus faecalis 12-13): > 128 µg/mL
- MIC (Enterococcus faecalis; Enterococcus faecalis 12-14): 1 µg/mL (≈ 1.34 µM)
- MIC (Enterococcus faecalis; Enterococcus faecalis 12-17): > 128 µg/mL
- MIC (Enterococcus faecalis; Enterococcus faecalis 12-18): > 128 µg/mL
- MIC (Enterococcus faecalis; Enterococcus faecalis 12-19): > 128 µg/mL
- MIC (Enterococcus faecalis; Enterococcus faecalis 12-20): > 128 µg/mL
- MIC (Enterococcus faecalis; Enterococcus faecalis 12-21): > 128 µg/mL
- MIC (Enterococcus faecalis; Enterococcus faecalis 12-22): > 128 µg/mL
- MIC ([1]; Staphylococcus epidermidis): 128 µg/mL (≈ 171 µM)
- MIC ([1]; Staphylococcus epidermidis MSSE 12-20): 128 µg/mL (≈ 171 µM)
- MIC ([1]; Staphylococcus epidermidis, Staphylococcus epidermidis MSSE 12-12, read-out: MIC): 4 µg/mL (≈ 5.34 µM)
- MIC ([1]; Staphylococcus epidermidis, Staphylococcus epidermidis MSSE 12-13, read-out: MIC): > 128 µg/mL
- MIC ([1]; Staphylococcus epidermidis, Staphylococcus epidermidis MSSE 12-14, read-out: MIC): 8 µg/mL (≈ 10.7 µM)
- MIC ([1]; Staphylococcus epidermidis, Staphylococcus epidermidis MSSE 12-15, read-out: MIC): 8 µg/mL (≈ 10.7 µM)
- MIC ([1]; Staphylococcus epidermidis, Staphylococcus epidermidis MSSE 12-16, read-out: MIC): 64 µg/mL (≈ 85.4 µM)
- MIC ([1]; Staphylococcus epidermidis, Staphylococcus epidermidis MSSE 12-17, read-out: MIC): 8 µg/mL (≈ 10.7 µM)
- MIC ([1]; Staphylococcus epidermidis, Staphylococcus epidermidis MSSE 12-18, read-out: MIC): 16 µg/mL (≈ 21.4 µM)
- MIC ([1]; Staphylococcus epidermidis, Staphylococcus epidermidis MSSE 12-19, read-out: MIC): 16 µg/mL (≈ 21.4 µM)
- MIC ([2]; Staphylococcus aureus MSSA 12-11, read-out: MIC): > 128 µg/mL
- MIC ([2]; Staphylococcus aureus MSSA 12-13, read-out: MIC): 0.25 µg/mL (≈ 0.334 µM)
- MIC ([2]; Staphylococcus aureus MSSA 12-14, read-out: MIC): > 128 µg/mL
- MIC ([2]; Staphylococcus aureus MSSA 12-15): 0.125 µg/mL (≈ 0.167 µM)
- MIC ([2]; Staphylococcus aureus MSSA 12-16, read-out: MIC): > 128 µg/mL
- MIC ([2]; Staphylococcus aureus MSSA 12-17, read-out: MIC): > 128 µg/mL
- MIC ([2]; Staphylococcus aureus MSSA 12-18): 128 µg/mL (≈ 171 µM)
- MIC ([2]; Staphylococcus aureus MSSA 12-19, read-out: MIC): > 128 µg/mL
- MIC ([2]; Staphylococcus aureus MSSA 12-20, read-out: MIC): > 128 µg/mL
- MIC ([2]; Staphylococcus aureus MSSA 12-21): 128 µg/mL (≈ 171 µM)
- MIC [3]: 0.125 µg/mL (≈ 0.167 µM)
